Measurements taken from patent US11293045B2, “Method for electrochemical detection of mycobacteria” (UNIVERSITÉ DE BOURGOGNE, priority 2017, dated 2022).

Assay: Linear voltammetry of substrate and product solutions on screen-printed carbon sensors
Format: physicochemical
Details: linear voltammetry v=50 mV·s^−1; 5×10^−4 M in PBS (pH 7.5)—0.2% DMSO; vs. Ag/AgCl
Method: FIG. 2 represents the linear voltammograms (v=50 mV·s^−1) of a solution of substrate (p-AP-OG; S) and of product (p-AP-G; dashed curve; P) at 5×10^−4 M in PBS (pH 7.5)—0.2% DMSO.
The electrochemical measurements were carried out by linear voltammetry (v=50 mV·s^−1) with a 910 PSTAT mini potentiostat (Metrohm, France) powered through the USB connection of the computer and controlled by the PSTAT software (version 1.0). To do this, drops of solution of 30-50 μl were deposited on the surface of single-use screen-printed carbon sensors supplied by Dropsens (DRP-110) and connected to the potentiostat via the connector (DRP-DSC). The amperometric detection of the product generated during the reaction catalyzed by Ag85 was always carried out after a step of filtration of the reaction mixture with a filtration device (Microcon 10 kDa, Millipore). All the potentials are measured relative to the Ag/AgCl reference electrode.

| oxidation peak potential | Structure (SMILES) |
| --- | --- |
| ~+0.4 V | Nc1ccc(O[C@@H]2O[C@H](CO)[C@@H](O)[C@H](O)[C@H]2O)cc1 [p-AP-G, p-aminophenyl-β-D-glucopyranoside] |
| ~+0.2 V | CCCCCCCC(=O)OC[C@H]1O[C@@H](Oc2ccc(N)cc2)[C@H](O)[C@@H](O)[C@@H]1O [p-AP-OG, p-aminophenyl-6-O-octanoyl-β-D-glucopyranoside] |
